Earlier results in patent US20210401707A1, “AZOXYSTROBIN IN A SULFATE FREE PERSONAL CARE COMPOSITION” (The Procter & Gamble Company, priority 2020, published 2021).

In the case of `CO/C=C(/C(=O)OC)c1ccccc1Oc1cc(Oc2ccccc2C#N)ncn1` [Azoxystrobin], the solubility in water is listed as “low solubility in water”.
